Assay results from PMC7897990, “TriTOX: A novel Trichomonas vaginalis assay platform for high-throughput screening of compound libraries” (International Journal for Parasitology: Drugs and Drug …, 2021).
Where a name gives a salt, the structure may show the parent alone. Read-outs that look alike come from different tables or passages of the source. Non-standard residues stand in square brackets, D forms with d. Residues, ends and D or L forms follow the SMILES beside them. aIle = CC[C@@H](C)[C@H](N)C(=O)O

Legend:
[1] = system: Trichomonas vaginalis G3 trophozoites
[2] = system: Trichomonas vaginalis G3 trophozoites; assay: microbe, parasite or virus in culture; settings: 48 h
[3] = HTS, parasite screen at 1 µg/mL, replicate 1, raw absorbance
[4] = HTS, parasite screen at 1 µg/mL, replicate 2, raw absorbance
[5] = read-out: T.vaginalis_%inb_Rep1
[6] = read-out: T.vaginalis_%inb_Rep2

Structure (SMILES) | T.vaginalis_Absorbance_Rep1 [1, 3] | T.vaginalis_Absorbance_Rep2 [1, 4] | inhibition of growth at 1 µg/mL [2, 5] | inhibition of growth at 1 µg/mL [2, 6] | T.vaginalis_Absorbance_Rep1 [1] | T.vaginalis_Absorbance_Rep2 [1]
CC(=O)O[C@H]1C[C@@]2(C)[C@@H](CC[C@H]3[C@@]4(C)C=CC(=O)[C@@H](C)[C@@H]4[C@H](OC(C)=O)C(=O)[C@@]32C)/C1=C(\CCC=C(C)C)C(=O)O [Helvolic acid] | 0.864 | 0.811 | 5.19% | 10.6% | – | –
CS(=O)(=O)c1ccc([C@@H](O)[C@@H](CF)NC(=O)C(Cl)Cl)cc1 [Florfenicol] | 0.852 | 0.749 | 7.7% | 9.33% | – | –
C[C@H]1c2cccc(O)c2C(=O)C2=C(O)[C@]3(O)C(=O)C(C(N)=O)=C(O)[C@@H](N(C)C)[C@@H]3[C@@H](O)[C@@H]21 [Doxycycline] | 0.879 | 0.647 | 9.15% | 1.95% | – | –
C[C@@H]1C/C=C/C=C/C=C/C=C/[C@H](O[C@@H]2O[C@H](C)[C@@H](O)[C@H](N)[C@@H]2O)C[C@@H]2O[C@](O)(C[C@@H](O)C[C@H]3O[C@@H]3/C=C/C(=O)O1)C[C@H](O)[C@H]2C(=O)O [Pimaricin] | – | – | 10.4% | 13.7% | – | –
C=CC(C)(C)[C@@]12C[C@H]3C(=O)N[C@H](CC(C)C)C(=O)N3[C@H]1N(C(C)=O)c1ccccc12 [Verrucofortine] | – | – | 7.92% | 9.69% | – | –
CC[C@@H](C)[C@@H]1NC(=O)[C@@H](CC(C)C)NC(=O)[C@H](CC(C)C)NC(=O)[C@H](Cc2c[nH]c3ccccc23)NC(=O)CNC(=O)[C@H](CC(N)=O)NC1=O [Desotamide] (cyclo(GWL[dL][aIle]N)) | 0.987 | 0.689 | 15% | 4.99% | – | –
CC[C@@]1([C@@H]2O[C@@H]([C@H]3O[C@@](O)(CO)[C@H](C)C[C@@H]3C)C[C@@H]2C)CC[C@H]([C@]2(C)CC[C@]3(C[C@H](O)[C@@H](C)[C@@H]([C@@H](C)[C@@H](OC)[C@H](C)C(=O)O)O3)O2)O1 [Monensin A] | – | – | 12.4% | 16.1% | – | –
CC[C@H]1OC(=O)C[C@@H](O)[C@H](C)[C@@H](O[C@@H]2O[C@H](C)[C@@H](O[C@H]3C[C@@](C)(O)[C@@H](O)[C@H](C)O3)[C@H](N(C)C)[C@H]2O)[C@@H](CC=O)C[C@@H](C)C(=O)/C=C/C(C)=C/[C@@H]1CO[C@@H]1O[C@H](C)[C@@H](O)[C@@H](OC)[C@H]1OC [Tylosin] | – | – | 9.02% | 5.48% | – | –
CC(=O)O[C@H]1C[C@@]2(C)[C@@H](C[C@@H](O)[C@H]3[C@@]4(C)CC[C@@H](O)[C@@H](C)[C@@H]4CC[C@@]32C)/C1=C(\CCC=C(C)C)C(=O)O [Fusidate sodium] | 0.786 | 0.66 | 4.26% | 1.6% | – | –
CO[C@@H]1C[C@@H](C[C@H]2CC[C@H](C)[C@H]([C@@H](C)C(=O)O)O2)O[C@]2(O[C@](C)([C@H]3CC[C@@](C)([C@@H]4O[C@@H]([C@H]5O[C@@](O)(CO)[C@H](C)C[C@@H]5C)C[C@@H]4C)O3)C[C@H]2C)[C@@H]1C [Nigericin] | – | – | 6.59% | 6.22% | – | –
COc1cccc2c1C(=O)c1c(O)c3c(c(O)c1C2=O)C[C@@](O)(C(=O)CO)C[C@@H]3O[C@H]1C[C@H](N)[C@H](O)[C@H](C)O1 [Doxorubicin] | 0.959 | 0.663 | 13.5% | 3.11% | – | –
COc1c(C)c2c(c(O)c1C/C=C(\C)CCC(=O)O)C(=O)OC2 [Mycophenolic acid] | – | – | 12.2% | 14.1% | – | –
C[C@@H](O)[C@H]1C(=O)N2C(C(=O)O)=C(S[C@@H]3CN[C@H](CNS(N)(=O)=O)C3)[C@H](C)[C@H]12 [Doripenem] | 0.999 | – | 15.6% | 15.6% | – | –
CC[C@H]1OC(=O)[C@H](C)[C@@H](O[C@H]2C[C@@](C)(OC)[C@@H](O)[C@H](C)O2)[C@H](C)[C@@H](O[C@@H]2O[C@H](C)C[C@H](N(C)C)[C@H]2O)[C@](C)(O)C[C@@H](C)[C@@H]2N[C@@H](COCCOC)O[C@H]([C@H]2C)[C@]1(C)O [Dirithromycin] | 0.867 | 0.651 | 8.51% | 2.24% | – | –
CCc1c(Cl)c(O)c(Cl)c(O)c1C(=O)O[C@H]1[C@H](O)[C@H](OC)[C@H](OC/C2=C\C=C\C[C@H](O)/C(C)=C/[C@H](CC)[C@@H](O[C@@H]3OC(C)(C)[C@@H](OC(=O)C(C)C)[C@H](O)[C@@H]3O)/C(C)=C/C(C)=C/C[C@@H]([C@@H](C)O)OC2=O)O[C@@H]1C [Fidaxomicin] | 0.922 | 0.759 | 11.5% | 10.1% | – | –
Cc1cc(O)c2c(c1)C(=O)c1cc(O)cc(O)c1C2=O [Emodin] | 1.052 | 0.831 | 17.8% | 12.6% | – | –
CO[C@H]1C[C@@H]2CC[C@@H](C)[C@@](O)(O2)C(=O)C(=O)N2CCCC[C@H]2C(=O)O[C@H]([C@H](C)C[C@@H]2CC[C@H](n3cnnn3)[C@H](OC)C2)CC(=O)[C@H](C)/C=C(\C)[C@@H](O)[C@@H](OC)C(=O)[C@H](C)C[C@H](C)/C=C/C=C/C=C/1C [Zotarolimus] | – | – | 10.4% | 6.09% | – | –
O=C(O)c1cccc(C(=O)O)n1 [Dipicolinic acid] | – | – | 13.9% | 2.6% | 0.967 | 0.656

Structure (SMILES) | T.vaginalis_Absorbance_Rep1 [1, 3] | T.vaginalis_Absorbance_Rep2 [1, 4] | inhibition of growth at 1 µg/mL [2, 5] | inhibition of growth at 1 µg/mL [2, 6] | T.vaginalis_Absorbance_Rep1 [1] | T.vaginalis_Absorbance_Rep2 [1]
CO[C@H]1C[C@H](O[C@H]2[C@H](C)[C@@H](O[C@@H]3O[C@H](C)C[C@H](N(C)C)[C@H]3O)[C@@H](C)C[C@@]3(CO3)C(=O)[C@H](C)[C@@H](O)[C@@H](C)[C@@H](C)OC(=O)[C@@H]2C)O[C@@H](C)[C@@H]1O [Oleandomycin] | – | – | 13.2% | 4.75% | – | –
Cc1cc(O)cc(O)c1C(=O)O [Orsellinic acid] | – | – | 12.5% | 14.9% | – | –
COC1=C2C[C@@H](C)C[C@H](OC)[C@H](O)[C@@H](C)/C=C(\C)[C@H](OC(N)=O)[C@@H](OC)/C=C\C=C(/C)C(=O)NC(=CC1=O)C2=O [Geldanamycin] | 0.958 | 0.854 | 13% | 14.1% | – | –
Oc1cc(O)cc(O)c1 [Phloroglucinol] | – | – | 13.9% | 12.3% | – | –
OC[C@H]1O[C@@H](n2cnc3c2NC=NC[C@H]3O)C[C@@H]1O [Pentostatin] | – | – | 12.7% | 15.8% | – | –
CC(=O)c1c(O)c(C)c(O)c2c1OC1=CC(=O)C(C(C)=O)C(=O)C12C (stereo not shown) [Usnic acid] | – | – | 8.76% | 13.7% | – | –
CC(=O)O[C@H]1CC[C@@]2(C)[C@@H](CC[C@@H]3[C@@H]2CC(=O)[C@]2(C)[C@@H]4[C@H](C[C@@H]32)O[C@]2(CC[C@@H](C)CO2)[C@H]4C)C1 [Hecogenin acetate] | 0.908 | 0.854 | 10.4% | 14.1% | – | –
CN(C)[C@H]1C(O)=C(C(N)=O)C(=O)[C@@]2(O)C(O)=C3C(=O)c4c(O)cccc4[C@@](C)(O)[C@H]3C[C@@H]12 [Epitetracycline hydrochloride] | – | – | 11% | 4.41% | – | –
O=C(O)c1ccc[nH]1 [Pyrrole-2-carboxylic acid] | – | – | 17.3% | 11.6% | – | –
C[C@H]1[C@H](C)CC[C@]2(C(=O)O)CC[C@]3(C)C(=CC[C@@H]4[C@@]5(C)CC[C@H](O)C(C)(C)[C@@H]5CC[C@]43C)[C@H]12 [Ursolic acid] | – | – | 7.39% | 10.4% | – | –
C/C(=C\C(=O)OCCCCCCCCC(=O)O)C[C@@H]1OC[C@H](C[C@@H]2O[C@H]2[C@@H](C)[C@H](C)O)[C@@H](O)[C@H]1O [Pseudomonic acid] | – | – | 11.5% | 11.7% | – | –
COc1ccc(C[C@H](N)C(=O)N[C@H]2[C@@H](O)[C@H](n3cnc4c(N(C)C)ncnc43)O[C@@H]2CO)cc1 [Puromycin] | – | – | 12% | 10.7% | – | –
CN(C)[C@@H]1C(O)=C(C(N)=O)C(=O)[C@@]2(O)C(O)=C3C(=O)c4c(O)cccc4[C@@](C)(O)[C@H]3[C@H](O)[C@@H]12 [Oxytetracycline] | – | – | 13.3% | 10.7% | – | –
CN(C)c1ccc(O)c2c1C[C@H]1C[C@H]3[C@H](N(C)C)C(O)=C(C(N)=O)C(=O)[C@@]3(O)C(O)=C1C2=O [Minocycline HCl] | – | – | 4.51% | 0.77% | – | –
CN(C)c1cc(NC(=O)CNC(C)(C)C)c(O)c2c1C[C@H]1C[C@H]3[C@H](N(C)C)C(O)=C(C(N)=O)C(=O)[C@@]3(O)C(O)=C1C2=O [Tigecycline] | – | – | 10% | 5.97% | – | –
O=C1NC(c2c[nH]c3ccc(O)cc23)=C/C1=C1\C(=O)Nc2ccccc21 [Violacein] | – | – | 11.2% | 11.8% | – | –
CC[C@@H](C(=O)O)[C@@H]1O[C@@H]([C@@H](C)[C@H](O)[C@H](C)C(=O)[C@H](CC)[C@H]2O[C@]3(C=C[C@@H](O)[C@]4(CC[C@@](C)([C@H]5CC[C@](O)(CC)[C@H](C)O5)O4)O3)[C@H](C)C[C@@H]2C)[C@@H](C)C[C@@H]1C [Narasin] | – | – | 6.14% | 4.3% | – | –
CC[C@H](C)C(=O)O[C@H]1C[C@H](O)C=C2C=C[C@H](C)[C@H](CC[C@@H](O)C[C@@H](O)CC(=O)O)[C@H]21 [Pravastatin sodium] | – | – | 13% | 13.6% | – | –
